The data set in a line: Colon concentration in mice compared with uncoupling concentration (Example 6). In kind it is in vivo. The procedure: Model. Results from Examples 2 and 5 are used together. […] This concentration is directly compared to the dose-response data to determine if efficacious exposure is sufficient to induce mitochondrial uncoupling in colon.
Pharmacokinetic study design.
Calculation of target coverage. The average area under the colon concentration versus time curve (AUC) and the peak concentration is calculated and is plotted and is graphed.

Bounds are passed on as bounds.

The record followed here is patent publication US10849867B2, “Methods and compositions for treating conditions associated with an abnormal inflammatory response” (First Wave Bio, Inc., priority 2015, dated 2020).

As to `O=C(Nc1ccc([N+](=O)[O-])cc1Cl)c1cc(Cl)ccc1O` [Niclosamide, 5-chloro-N-(2-chloro-4-nitrophenyl)-2-hydroxybenzamide], the “concentration in the colon” value (single rectal dose 1 mg/kg (below maximal efficacy)) was less than 5 µM. Also, the colon peak concentration (single rectal dose 3 mg/kg (therapeutic dosage)) is more than 5 µM.
